# According to patent US6924279B2, “Crystalline 1-methylcarbapenem derivatives” (Sankyo Company, Limited, priority 1999, dated 2005):
# Like-named read-outs stand apart in the source and are kept apart here.
# Key:
# [1] = Stability test in desiccator at 40° C. and 75% relative humidity (HPLC remaining amount); assay type: physicochemical
# Experimental: (§1) The crystalline compounds obtained in Example 1, 2, 4 and 5 were kept for about 2 months in a desiccator at 40° C. and 75% relative humidity and in a desiccator at 60° C. in which silica gel was placed, respectively. The non-crystalline powdered compound (lyophilized product) obtained according to the procedure described in U.S. Pat. No. 6,090,802 Example 72 and in Japanese Patent Application Publication No. Hei-11-071277, which is a reference sample, was kept under the same conditions described above. The remaining amount of the crystalline compounds and the non-crystalline powdered compound were determined after 7, 20, 21, 28, and 56 days by high pressure liquid chromatography on a L-Column ODS (4.6 mm Φ×150 mm, (trade mark) manufactured by Kagakuhinn kennsa kyoukai) eluting with 20 mM KH2PO4 (pH 7.0): CH3CN=96:4 at 1.0 ml/minute at 60° C. using an ultraviolet wave length of 300 nm. The remaining percentages of these compounds were calculated from the remaining amount of them and show in Tables 1-4.
# [2] = Stability test in desiccator at 60° C. in which silica gel was placed (HPLC remaining amount); assay type: physicochemical; details: desiccator at 60° C. with silica gel
# Experimental: as §1
# S. aureus 535 (MRSA) = assay: Antibiotic activity test, agar-plate dilution method; assay type: cell-based, Staphylococcus aureus
# Experimental: (§2) The MIC (μg/ml), the lowest concentration of antibiotic which inhibits growth of the test bacterial strain, was determined by the agar-plate dilution method. The crystalline compounds obtained in Example 1, 2, 4 and 5 of this invention were evaluated against various bacterial strains by determining the MIC of each compound with respect to each strain.
# E. coli 609 = assay: as above; assay type: cell-based, Escherichia coli
# Experimental: as §2
# Enterobacter cloacae 963 = assay: as above; assay type: cell-based
# Experimental: as §2
# Escherichia coli NIHJ = assay: as above; assay type: cell-based
# Experimental: as §2
# [3] = system: Klebisella pneumoniae 806; assay: as above; assay type: cell-based
# Experimental: as §2
# [4] = system: Pseudomonas aeruginosa 1001; assay: as above; assay type: cell-based
# Experimental: as §2
# Serratia marcescens 1184 = assay: as above; assay type: cell-based
# Experimental: as §2
# [5] = system: Staphylococcus aureus 209P; assay: as above; assay type: cell-based
# Experimental: as §2
# K. pneumoniae 846 = assay: as above; assay type: cell-based, Klebisella pneumoniae
# Experimental: as §2
smiles,measurement,setting,value
"CCO.C[C@@H](O)[C@H]1C(=O)N2C(C(=O)O)=C(S[C@H]3C[C@@H](C(=O)N4CC[C@H](NC(=O)CNC(=N)N)C4)N(C)C3)[C@H](C)[C@H]12.O=C(O)O [Example 1, (1R,5S,6S)-2-[(2S,4S)-2-[(3S)-3-(2-Guanidinoacetylamino)pyrrolidin-1-ylcarbonyl]-1-methylpyrrolidin-4-ylthio]-6-[(1R)-1-hydroxyethyl]-1-methyl-1-carbapen-2-em-3-carboxylic acid.1/2 Carbonate.1/2 Ethanol]",Remaining percentage of compound,[1]; After 20 days,98.5%
same,Remaining percentage of compound,[1]; After 56 days,92.9%
same,Remaining percentage of compound,[2]; After 21 days,98.5%
same,Remaining percentage of compound,[2]; After 56 days,96.4%
same,Antibiotic activity (MIC),S. aureus 535 (MRSA),1.5 µg/mL
same,Antibiotic activity (MIC),E. coli 609,0.02 µg/mL
same,Antibiotic activity (MIC),Enterobacter cloacae 963,0.05 µg/mL
same,Antibiotic activity (MIC),Escherichia coli NIHJ,≦0.01 μg/ml
same,Antibiotic activity (MIC),[3],≦0.01 μg/ml
same,Antibiotic activity (MIC),[4],0.2 µg/mL
same,Antibiotic activity (MIC),Serratia marcescens 1184,≦0.01 μg/ml
same,Antibiotic activity (MIC),[5],≦0.01 μg/ml
same,Antibiotic activity (MIC),K. pneumoniae 846,≦0.01 μg/ml
"C[C@@H](O)[C@H]1C(=O)N2C(C(=O)O)=C(S[C@H]3C[C@@H](C(=O)N4CC[C@H](NC(=O)CNC(=N)N)C4)N(C)C3)[C@H](C)[C@H]12 [Example 4, (1R,5S,6S)-2-[(2S,4S)-2-[(3S)-3-(2-Guanidinoacetylamino)pyrrolidin-1-ylcarbonyl]-1-methylpyrrolidin-4-ylthio]-6-[(1R)-1-hydroxyethyl]-1-methyl-1-carbapen-2-em-3-carboxylic Acid]",Remaining percentage of compound,[1]; After 20 days,99.4%
same,Remaining percentage of compound,[1]; After 56 days,94.3%
same,Remaining percentage of compound,[2]; After 21 days,100.4%
same,Remaining percentage of compound,[2]; After 56 days,100.9%
same,Antibiotic activity (MIC),S. aureus 535 (MRSA),1.5 µg/mL
same,Antibiotic activity (MIC),E. coli 609,0.02 µg/mL
same,Antibiotic activity (MIC),Enterobacter cloacae 963,0.05 µg/mL
same,Antibiotic activity (MIC),Escherichia coli NIHJ,≦0.01 μg/ml
same,Antibiotic activity (MIC),[3],≦0.01 μg/ml
same,Antibiotic activity (MIC),[4],0.2 µg/mL
same,Antibiotic activity (MIC),Serratia marcescens 1184,≦0.01 μg/ml
same,Antibiotic activity (MIC),[5],≦0.01 μg/ml
same,Antibiotic activity (MIC),K. pneumoniae 846,≦0.01 μg/ml
"C[C@@H](O)[C@H]1C(=O)N2C(C(=O)O)=C(S[C@H]3C[C@@H](C(=O)N4CC[C@H](NC(=O)CNC(=N)N)C4)N(C)C3)[C@H](C)[C@H]12 [Example 5, (1R,5S,6S)-2-[(2S,4S)-2-[(3S)-3-(2-Guanidinoacetylamino)pyrrolidin-1-ylcarbonyl]-1-methylpyrrolidin-4-ylthio]-6-[(1R)-1-hydroxyethyl]-1-methyl-1-carbapen-2-em-3-carboxylate.1/4 Ethanol.3/2 Hydrate]",Remaining percentage of compound,[1]; After 7 days,98.9%
same,Remaining percentage of compound,[1]; After 28 days,94.6%
same,Remaining percentage of compound,"[1]; After 56 days, Hydrate",83.2%
same,Remaining percentage of compound,[2]; After 7 days,98.3%
same,Remaining percentage of compound,[2]; After 28 days,97.0%
same,Remaining percentage of compound,"[2]; After 56 days, Hydrate",97.6%
same,Antibiotic activity (MIC),E. coli 609; Hydrate,≦0.01 μg/ml
same,Antibiotic activity (MIC),[4]; Hydrate,0.39 µg/mL
"CCO.C[C@@H](O)[C@H]1C(=O)N2C(C(=O)O)=C(S[C@H]3C[C@@H](C(=O)N4CC[C@H](NC(=O)CNC(=N)N)C4)N(C)C3)[C@H](C)[C@H]12.C[C@@H](O)[C@H]1C(=O)N2C(C(=O)O)=C(S[C@H]3C[C@@H](C(=O)N4CC[C@H](NC(=O)CNC(=N)N)C4)N(C)C3)[C@H](C)[C@H]12 [Example 2, (1R,5S,6S)-2-[(2S,4S)-2-[(3S)-3-(2-Guanidinoacetylamino)pyrrolidin-1-ylcarbonyl]-1-methylpyrrolidin-4-ylthio]-6-[(1R)-1-hydroxyethyl]-1-methyl-1-carbapen-2-em-3-carboxylic Acid.1/2 Ethanol]",Remaining percentage of compound,[1]; After 20 days,95.8%
same,Remaining percentage of compound,[1]; After 56 days,87.3%
same,Remaining percentage of compound,[2]; After 21 days,100.1%
same,Remaining percentage of compound,[2]; After 56 days,96.8%
same,Antibiotic activity (MIC),S. aureus 535 (MRSA),1.5 µg/mL
same,Antibiotic activity (MIC),E. coli 609,≦0.01 μg/ml
same,Antibiotic activity (MIC),Enterobacter cloacae 963,0.05 µg/mL
same,Antibiotic activity (MIC),Escherichia coli NIHJ,≦0.01 μg/ml
same,Antibiotic activity (MIC),[3],≦0.01 μg/ml
same,Antibiotic activity (MIC),[4],0.2 µg/mL
same,Antibiotic activity (MIC),Serratia marcescens 1184,≦0.01 μg/ml
same,Antibiotic activity (MIC),[5],≦0.01 μg/ml
same,Antibiotic activity (MIC),K. pneumoniae 846,≦0.01 μg/ml
